molecular target: T1, Human CARM1 (PRMT4) (Homo sapiens, UniProt Q86X55); experiment: CARM1 biochemical assay (3H-SAM Flashplate, peptide substrate); settings: read-out: CARM1_ IC50
T1 construct: Flag-CARM1-His; made in house; host or cells: HEK 293F cells (BacMam baculovirus, pFastBacMam)
T1 sequence (Q86X55 2-585 isoform Q86X55-1): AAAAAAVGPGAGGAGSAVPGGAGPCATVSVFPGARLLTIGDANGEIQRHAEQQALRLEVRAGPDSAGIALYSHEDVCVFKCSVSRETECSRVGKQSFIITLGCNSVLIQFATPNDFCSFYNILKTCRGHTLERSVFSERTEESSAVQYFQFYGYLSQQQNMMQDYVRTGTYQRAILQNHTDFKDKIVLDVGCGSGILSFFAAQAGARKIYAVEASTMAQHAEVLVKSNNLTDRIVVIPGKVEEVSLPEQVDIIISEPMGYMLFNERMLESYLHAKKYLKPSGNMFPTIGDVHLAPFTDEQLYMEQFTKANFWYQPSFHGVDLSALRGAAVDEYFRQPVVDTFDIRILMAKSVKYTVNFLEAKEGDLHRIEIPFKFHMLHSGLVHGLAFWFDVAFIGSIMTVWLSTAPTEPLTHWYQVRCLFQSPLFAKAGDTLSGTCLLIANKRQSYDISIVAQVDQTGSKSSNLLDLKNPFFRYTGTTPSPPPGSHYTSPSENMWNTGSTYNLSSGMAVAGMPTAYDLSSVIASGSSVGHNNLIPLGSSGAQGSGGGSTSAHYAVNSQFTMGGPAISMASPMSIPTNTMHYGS
Description: S-adenosylmethionine (SAM), S-adenosylhomocysteine (SAH), bicine, Tween20, dimethylsulfoxide (DMSO), bovine skin gelatin (BSG), sodium butyrate and Tris(2-carboxyethyl)phosphine hydrochloride solution (TCEP) were purchased from Sigma-Aldrich at the highest level of purity possible. ^3H-SAM was purchase from American Radiolabeled Chemicals with a specific activity of 80 Ci/mmol. 384-well streptavidin Flashplates were purchased from PerkinElmer.
Peptide representative of human histone H3 residues 16-30 was synthesized with an N-terminal linker-affinity tag motif and a C-terminal amide cap by 21st Century Biochemicals. The peptide was purified by high-performance liquid chromatography (HPLC) to greater than 95% purity and confirmed by liquid chromatography mass spectrometry (LC-MS). The sequence was Biot-Ahx-[…]-amide and contained a monomethylated arginine at position 26 (SEQ ID NO.: 14).
Human CARM1 (PRMT4) (NM_199141.1) transcript clone was amplified from an HEK 293 cDNA library, incorporating a flanking 5′ sequence encoding a FLAG tag ([…]) (SEQ ID NO.: 6) fused directly to Ala 2 of CARM1 and 3′ sequence encoding a hexa His sequence ([…]) (SEQ ID NO.: 15) fused directly to Ser 608. The gene sequence encoding isoform1 containing a deletion of amino acids 539-561 was amplified subsequently and subcloned into pFastBacMam (Viva Biotech).
Recombinant baculovirus were generated according to Bac-to-Bac kit instructions (Life Technologies). […] Infections were carried out at 37° C. for 48 hours, harvested by centrifugation, and stored at −80° C. for purification.
Column was washed with 500 mM NaCl in buffer A and Flag-CARM1-His was eluted with 200 ug/ml FLAG peptide in buffer A. Pooled fractions were dialyzed in 20 mM Tris, 150 mM NaCl, 5% glycerol and 1 mM DTT, pH 7.8. The purity of recovered protein was 94.
General Procedure for CARM1 Enzyme Assays on Peptide Substrates.
The assays were all performed in a buffer consisting of 20 mM Bicine (pH=7.6), 1 mM TCEP, 0.005% BSG, and 0.002% Tween 20, prepared on the day of use. Compounds in 100% DMSO (1 ul) were spotted into a polypropylene 384-well V-bottom plates (Greiner) using a Platemate Plus outfitted with a 384-channel head (Thermo Scientific). DMSO (1 ul) was added to Columns 11, 12, 23, 24, rows A-H for the maximum signal control and 1 ul of SAH, a known product and inhibitor of CARM1, was added to columns 11, 12, 23, 24, rows I-P for the minimum signal control. A cocktail (40 ul) containing the CARM1 enzyme was added by Multidrop Combi (Thermo-Fisher). The compounds were allowed to incubate with CARM1 for 30 min at room temperature, then a cocktail (10 ul) containing ^3H-SAM and peptide was added to initiate the reaction (final volume=51 ul). The final concentrations of the components were as follows: CARM1 was 0.25 nM, ^3H-SAM was 30 nM, peptide was 250 nM, SAH in the minimum signal control wells was 1 mM, and the DMSO concentration was 2%. The assays were stopped by the addition of non-radiolabeled SAM (10 ul) to a final concentration of 300 uM, which dilutes the ^3H-SAM to a level where its incorporation into the peptide substrate is no longer detectable. 50 ul of the reaction in the 384-well polypropylene plate was then transferred to a 384-well Flashplate and the biotinylated peptides were allowed to bind to the streptavidin surface for at least 1 hour before being washed once with 0.1% Tween20 in a Biotek ELx405 plate washer. The plates were then read in a PerkinElmer TopCount plate reader to measure the quantity of ^3H-labeled peptide bound to the Flashplate surface, measured as disintegrations per minute (dpm) or alternatively, referred to as counts per minute (cpm).
Where dpm=disintegrations per minute, cmpd=signal in assay well, and min and max are the respective minimum and maximum signal controls.
Where top and bottom are the normally allowed to float, but may be fixed at 100 or 0 respectively in a 3-parameter fit. […]

First: CNCCN(C)Cc1cccc(-c2cc(N3CCCCC3)c3cnn(C(C)C)c3n2)c1 [Compound 177]
Second: CNCCN(C)Cc1cccc(-c2cc(C(=O)N3CCOCC3)c3cnn(C(C)C)c3n2)c1 [Compound 321]
The IC50 of the first is 62-fold lower: 7.35 nM for the first, 453 nM for the second. The first is the more potent here.

First: CNCCN(C)Cc1cccc(-c2cc(-c3csc(C)n3)c3cnn(C(C)C)c3n2)c1 [Compound 178]
Second: CNCCN(C)Cc1cccc(-c2cc(-c3c(C)n[nH]c3C)c3cnn(C(C)C)c3n2)c1 [Compound 200]
The IC50 of the first is 2.2-fold lower: 7.51 nM for the first, 16.7 nM for the second. The first is the more potent here.

Compared with `Cc1cc(CNC(=O)c2cc(-c3cccc(CN(C)CCN)c3)nc3c2cnn3C(C)C)no1` [Compound 184], `CC(C)n1ncc2c(C(=O)NCC3COC3)cc(-c3cccc(CN(C)CCN)c3)nc21` [Compound 204] is 1.6-fold higher in IC50: 11.7 nM for the first, 19.2 nM for the second.

`CNCCN(C)Cc1cccc(-c2cc(Nc3ccncc3)c3cnn(C(C)C)c3n2)c1` [Compound 191] and `CNCCN(C)Cc1cccc(-c2cc(-c3ccncc3)c3cnn(C(C)C)c3n2)c1` [Compound 196] are within 1.5-fold of each other in IC50: 12.9 nM for the first, 14.3 nM for the second.

`CNCCN(C)Cc1cccc(-c2cc(-c3cn[nH]c3)c3cnn(C(C)C)c3n2)c1` [Compound 192] and `CNCCN(C)Cc1cccc(-c2cc(OCC3CC3)c3cnn(C(C)C)c3n2)c1` [Compound 203] are within 1.5-fold of each other in IC50: 13.1 nM for the first, 19.2 nM for the second.

Going from `CNCCN(C)Cc1cccc(-c2cc(C(=O)N[C@@H](C)c3ccccc3)c3cn(Cc4ccccc4)nc3n2)c1` [Compound 213] to `CNCCN(C)Cc1cccc(-c2cc(C(=O)N[C@@H](C)c3ccccc3)c3cn(Cc4ccccc4F)nc3n2)c1` [Compound 305], the IC50 rises from 25.4 nM to 240 nM (9.4-fold).

Compared with `CNCCN(C)Cc1cccc(-c2cc(C(=O)N[C@@H](C)c3ccccc3)c3cn(Cc4ccncc4)nc3n2)c1` [Compound 216], `CNCCN(C)Cc1cccc(-c2cc(C(=O)N[C@@H](C)c3ccccc3)c3cn(Cc4cccnc4)nc3n2)c1` [Compound 236] is 1.5-fold higher in IC50: 29.9 nM for the first, 46 nM for the second.

`CNCCN(C)Cc1cccc(-c2cc(N(CC3CC3)CC3CC3)c3cnn(C(C)C)c3n2)c1` [Compound 218] and `CNCCN(C)Cc1cccc(-c2cc(NCC3CC3)c3cnn(C(C)C)c3n2)c1` [Compound 226] are within 1.5-fold of each other in IC50: 30.9 nM for the first, 39.5 nM for the second.

First: CNCCN(C)Cc1cccc(-c2cc(C(=O)NCC3COC3)c3cnn(C(C)C)c3n2)c1 [Compound 219]
Second: CNCCN(C)Cc1cccc(-c2cc(C(=O)N(C)C3CCOCC3)c3cnn(C(C)C)c3n2)c1 [Compound 320]
The IC50 of the first is 13-fold lower: 31.6 nM for the first, 410 nM for the second.

`CNCCN(C)Cc1cccc(-c2cc(C(=O)N[C@@H](C)c3ccccc3)c3cn(Cc4ccccn4)nc3n2)c1` [Compound 221] and `CNCCN(C)Cc1cccc(-c2cc(C(=O)N[C@@H](C)c3ccccc3)c3cnn(Cc4ccccn4)c3n2)c1` [Compound 225] are within 1.5-fold of each other in IC50: 32.6 nM for the first, 38.1 nM for the second.

Compared with `CNCCN(C)Cc1cccc(-c2cc(C(=O)NC(C)c3ccccc3)c3cnn(C4CCOCC4)c3n2)c1` (stereo not shown) [Compound 248], `CNCCN(C)Cc1cccc(-c2cc(C(=O)NC(C)c3ccccc3)c3cn(C4CCOCC4)nc3n2)c1` (stereo not shown) [Compound 312] is 5.6-fold higher in IC50: 55.5 nM for the first, 311 nM for the second.

Going from `CNCCN(C)Cc1cccc(-c2cc(C(=O)N[C@@H](C)c3ccccc3)c3cnn(Cc4cccnc4)c3n2)c1` [Compound 249] to `CNCCN(C)Cc1cccc(-c2cc(C(=O)NCC3CCOCC3)c3cnn(Cc4cccnc4)c3n2)c1` [Compound 317], the IC50 rises from 57.3 nM to 386 nM (6.7-fold). The first is the more potent here.

Compared with `CNCCN(C)Cc1cccc(-c2cc(CN(C)OC)c3cnn(C(C)C)c3n2)c1` [Compound 264], `CNCCN(C)Cc1cccc(-c2cc(C(=O)N(C)CC(F)(F)F)c3cnn(C(C)C)c3n2)c1` [Compound 310] is 3.8-fold higher in IC50: 74.1 nM for the first, 283 nM for the second.

Going from `Cc1c(C(=O)NCC2CCOCC2)cc(-c2cccc(CN(C)CCN)c2)cc1N(C)CC1CC1` [Compound 267] to `CNCCN(C)Cc1cccc(-c2cc(C(=O)NCC3CCOCC3)c3cnn(CC4CC4)c3n2)c1` [Compound 285], the IC50 rises from 75.2 nM to 139 nM (1.8-fold).

Compared with `CNCCN(C)Cc1cccc(-c2cc(C(=O)NCc3ccccc3Cl)c3cnn(C(C)C)c3n2)c1` [Compound 268], `CNCCN(C)Cc1cccc(-c2cc(C(=O)N3Cc4ccccc4C3)c3cnn(C(C)C)c3n2)c1` [Compound 291] is 2.2-fold higher in IC50: 77.3 nM for the first, 168 nM for the second.

Going from `CNCCN(C)Cc1cccc(-c2cc(C(=O)N3CCC(F)(F)C3)c3cnn(C(C)C)c3n2)c1` [Compound 299] to `CNCCN(C)Cc1cccc(-c2cc(C(=O)N3CCC(F)C3)c3cnn(C(C)C)c3n2)c1` (stereo not shown) [Compound 313], the IC50 rises from 203 nM to 312 nM (1.5-fold).

Going from `CNCCN(C)Cc1cccc(-c2cc(C(=O)N3CCC(OC)C3)c3cnn(C(C)C)c3n2)c1` (stereo not shown) [Compound 302] to `CNCCN(C)Cc1cccc(-c2cc(C(=O)N3CCSCC3)c3cnn(C(C)C)c3n2)c1` [Compound 322], the IC50 rises from 233 nM to 456 nM (2-fold).

Going from `CNCCN(C)Cc1cccc(-c2cc(C(=O)NCC3CCOCC3)c3cnn(CC#N)c3n2)c1` [Compound 306] to `CNCCN(C)Cc1cccc(-c2cc(C(=O)NCC3CCOCC3)c3cnn(Cc4ccccn4)c3n2)c1` [Compound 318], the IC50 rises from 243 nM to 398 nM (1.6-fold). The first is the more potent here.

`CC(C)n1cc2c(C(=O)NC3CCOCC3)cc(-c3cccc(CN(C)CCN)c3)nc2n1` [Compound 308] and `CNCCN(C)Cc1cccc(-c2cc(C(=O)NC3CCOCC3)c3cnn(CC4CC4)c3n2)c1` [Compound 314] are within 1.5-fold of each other in IC50: 254 nM for the first, 334 nM for the second.

`CNCCN(C)Cc1cccc(-c2cc(C(O)C3CCOCC3)c3cnn(C(C)C)c3n2)c1` (stereo not shown) [Compound 315] and `CCOC(=O)c1cc(-c2cccc(CN(C)CCNC)c2)nc2c1cnn2CC(F)(F)F` [Compound 316] are within 1.5-fold of each other in IC50: 368 nM for the first, 379 nM for the second.

Compared with `Cc1cc(C)c(CNC(=O)c2cc(-c3ccc(CN(C)CCN4CCCC4)cc3)nc3c2cnn3C(C)C)c(=O)[nH]1` [Compound 364], `Cc1cc(C)c(CNC(=O)c2cc(-c3cccc(CNCCN(C)C)c3)nc3c2cnn3C(C)C)c(=O)[nH]1` [Compound 369] is 100-fold lower in IC50: 50000 nM for the first, 501 nM for the second. The second is the more potent here.

Work on `Cc1cc(C)c(CNC(=O)c2cc(-c3cc(CN(C)CCN)ccc3C)cc3c2cnn3C(C)C)c(=O)[nH]1` [Compound 389] yielded an IC50 of 232 nM.

— patent US20170280720A1, “ARGININE […] INHIBITORS AND USES THEREOF” (EPIZYME, INC., priority 2014, published 2017)
